Reference: patent US6596694B2, “Caloporoside derivatives, methods of their preparation and use” (Aventis Pharma Deutschland GmbH, priority 2001, dated 2003)

Target: cyclin D1/CDK4 (Homo sapiens, UniProt P11802)
Assay: Bioassay for CDK-4 inhibitors (phosphorylation of biotinylated peptide substrate, 33P-γ-ATP, flash plates)
Format: biochemical
Details: 2 μM ATP, 2 hours at 37° C., 10 concentrations; read-out: IC50 (concentration which deactivates 50% of CDK-4)
Experimental: In order to detect the inhibitors of cyclin-dependent kinases (CDKs), use is made of a test in which the phosphorylation rate by the cyclin-dependent kinases of a specific peptide substrate is measured. The cyclin-dependent kinases are activated when the kinase binds to its respective cyclin. A [γ-P]-phosphate is transferred from [γ-P]-ATP to the peptide substrate by the activated CDK. The test is carried out in 96-well microtiter plates. The radioactivity of the [γ-P]-phosphate on the substrate is measured.
IC50 values for the caloporoside derivatives are shown in Table 1; this is the concentration which deactivates 50% of CDK-4.
For the determination of the IC50 value, stock solutions of the caloporoside derivatives according to the invention were prepared in a concentration of 10 mM. […] flash plates were coated with 50 μl (50 μg/well) of biotinylated peptide substrate at room temperature, incubated for 2 hours, and subsequently washed 3× with PBS buffer. For the reaction, 30 μl of a buffer-diluted solution of the caloporoside derivatives and 20 μl of a pre-mixed ATP/cyclin D1/CDK4 solution (final concentration: 1 μCl of 33P-γ-ATP, 2 μM of ATP and 1 μg of enzyme mixture) were pipetted onto the plates. After a reaction time of 2 hours at 37° C., the plates were washed 3× with 80 μl of 3% phosphoric acid. Radioactivity was subsequently measured for 30 seconds in a MicroBeta counter. The percentage inhibition was determined with the aid of mathematical equations. For the determination of IC50 values, 10 different concentrations of the compounds according to the invention in a freshly diluted DMSO solution were tested.

Sequence of cyclin D1/CDK4 (P11802 whole entry, species assumed): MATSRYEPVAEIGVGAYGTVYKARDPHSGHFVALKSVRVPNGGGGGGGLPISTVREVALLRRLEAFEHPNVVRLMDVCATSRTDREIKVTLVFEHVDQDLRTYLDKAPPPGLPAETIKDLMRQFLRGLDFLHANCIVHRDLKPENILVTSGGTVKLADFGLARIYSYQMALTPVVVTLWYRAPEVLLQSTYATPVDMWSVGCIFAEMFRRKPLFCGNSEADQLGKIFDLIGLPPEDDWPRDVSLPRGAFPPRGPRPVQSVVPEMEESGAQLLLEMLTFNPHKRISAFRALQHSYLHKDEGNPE
Sequence of cyclin D1/CDK4 (P24385 whole entry partner, species assumed): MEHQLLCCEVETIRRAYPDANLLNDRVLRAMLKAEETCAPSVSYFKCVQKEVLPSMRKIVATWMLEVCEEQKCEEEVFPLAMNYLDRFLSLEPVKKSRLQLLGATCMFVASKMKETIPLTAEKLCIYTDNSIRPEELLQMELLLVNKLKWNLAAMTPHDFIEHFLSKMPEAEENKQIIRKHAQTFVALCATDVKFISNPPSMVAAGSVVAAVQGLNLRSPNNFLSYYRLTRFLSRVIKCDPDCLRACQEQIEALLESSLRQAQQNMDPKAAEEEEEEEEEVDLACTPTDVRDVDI

| SMILES | IC50 [nM] |
| --- | --- |
| CC(=O)Oc1cccc(CCCCCCCCCCCCCCCC(C)OC(=O)C(O)C(O)C(O)C(CO)OC2OC(CO)C(O)C(O)C2O)c1C(=O)O (centres unmarked) [Caloporoside B] | 1500 |
| CC(=O)Oc1cccc(CCCCCCCCCCCCCCCC(C)OC(=O)C(O)C(O)C(O)C(COC(=O)CC(=O)O)OC2OC(CO)C(O)C(O)C2OC(C)=O)c1C(=O)O (centres unmarked) [Caloporoside C] | 3100 |

The next lines start with the values.

| IC50 [nM] | SMILES |
| --- | --- |
| 1800 | CC(=O)OC1C(OC(COC(=O)CC(=O)O)C(O)C(O)C(O)C(=O)OC(C)CCCCCCCCCCCCCCCc2cccc(O)c2C(=O)O)OC(CO)C(O)C1O (centres unmarked) [Caloporoside D] |
| 1800 | CC(=O)OC1C(O)C(CO)OC(OC(COC(=O)CC(=O)O)C(O)C(O)C(O)C(=O)OC(C)CCCCCCCCCCCCCCCc2cccc(O)c2C(=O)O)C1O (centres unmarked) [Caloporoside E] |
| 1500 | CC(=O)OC1C(OC(CO)C(O)C(O)C(O)C(=O)OC(C)CCCCCCCCCCCCCCCc2cccc(O)c2C(=O)O)OC(CO)C(O)C1O (centres unmarked) [Caloporoside F] |
